Reference: patent US9809589B2, “Crystal form of compound used as mineralocorticoid receptor antagonist and preparation method therefor” (KBP BIOSCIENCES CO., LTD., priority 2012, dated 2017)
Entries after “also recorded” stand apart in the source; their conditions may differ. Each block holds one compound with its values, some of them ahead of it.

Legend:
[1] = test system: high salt induced Dahl salt sensitive (Dahl/SS) rats; test: Assay 3: depressurization effect (SBP, tail-cuff) in hypertension and kidney injury Dahl/ss rat model; type: in vivo; settings: for SBP Before Administration (mean ± SD): baseline, solid dispersion with PVPK30 1:8, oral gavage twice a day; for SBP After Administration (on 41th day) (mean ± SD): oral gavage twice a day, 4% NaCl chow, solid dispersion with PVPK30 1:8
Experimental: (§1) Organ protection and depressurization effect of Crystal Form I of the present invention on the high salt induced Dahl salt sensitive (Dahl/SS) rats
(§2) The solid dispersion of Crystal Form I of the present invention (Crystal Form I of the present invention: PVPK30=1:8 (w/w)): the solid dispersion of Crystal Form I of the present invention was formulated with a suitable amount of sterile water for injection into suspensions having concentrations of 0.03, 0.10, 0.30, and 1.00 mg/mL. The suspension was prepared before use every day.
(§3) Experiment animals: male Dahl/ss rats of SPF (specific pathogen free)-grade, 8-9 weeks, purchased via Vital River Laboratories from HARLAN LABORATORIES, INC. After one week normal quarantine, rats in good sign and condition were used in the experiment.
(§4) Dahl/ss rats were randomly divided into six groups according to the blood pressure measurement before administration:
(§5) The in vivo pharmacodynamic activity of Crystal Form I of the present invention was evaluated by the hypertension and kidney injury Dahl/ss rat's model.
(§6) One week before the experiment, the blood pressures of rats were monitored twice by the tail-cuff blood pressure measurement so that the rats could accommodate the blood pressure monitoring operation. The blood pressures of rats were monitored once before starting the experiment and used as the basic blood pressures before administration. The rats were randomly divided into groups according to the measured blood pressures before administration. The model was established by feeding the rats with a high salt chow (AIN-93G experiment animal feed containing 4% NaCl) for 42 days, in which the rats were freely accessible to food and water. And rats in control group were fed with a low-sodium chow.
(§7) The rats in the treatment groups with Crystal Form I of the present invention were respectively administrated with Crystal Form I of the present invention in a dosage of 0.3, 1, 3, and 10 mg/kg/day. Rats in treatment groups were dosed orally via gavage twice a day by 5 mL/kg. The rats in the model group and in the normal control were administrated with the same volume of sterile water for injection.
Blood pressure (systolic blood pressure, abbreviated as SBP) measurement: The blood pressure was measured once each week for six weeks. The blood pressure changes were analyzed for each group.

[2] = test system: high salt induced Dahl salt sensitive (Dahl/SS) rats; test: Assay 3: pathological examinations for kidney and heart (organ protection) in Dahl/ss rat model; type: in vivo; settings: for left ventricular wall thickness (mean ± SD) / Kidney injury scores (Mean ± SD): 42 days high salt chow; for Kidney injury scores (Mean ± SD): HE stain
Experimental: as §1, §2, §3, §4, §5, §6, §7
The pathological examinations for kidney and heart: After the experiment, the rats were killed in a painless manner. The heart and the bilateral kidneys were collected for histopathology analysis. Kidney injury was scored and semi-quantitatively analyzed based on hematoxylin-eosin (HE) stain. The heart injury was analyzed by the measurement of left ventricular wall thickness.

[3] = Assay 1: stability (influencing factor tests) for Crystal Form I; HPLC content; type: physicochemical
Experimental: Assay 1: Stability for Crystal Form I of the Present Compound
Crystal Form I of the compound represented by formula (1): Crystal Form I was prepared according to Example 2.
(§8) (1) Crystal Form I of the compound represented by formula (1) was laid on a dry and clean watch glass, and kept at 60° C. for 10 days. Samples were taken respectively on Day 5 and Day 10. The contents of the relevant substance and the compound represented by formula (1) in the sample were measured, and compared with the contents of those in the sample taken on Day 0;
(§9) (2) Crystal Form I of the compound represented by formula (1) was packaged and sealed with a low-density polyethylene bag for pharmaceutical use in the inner layer and with a polyester/aluminum/polyethylene composite film for pharmaceutical package in the outer layer, and kept at 60° C. for 10 days. Samples were taken respectively on Day 5 and Day 10. The contents of the relevant substance and the compound represented by formula (1) in the sample were measured, and compared with the contents of those in the sample taken on Day 0.
as §8, with “High humidity test: Crystal” for “(1) Crystal”, “at 25°” for “at 60°”, “C. under a relative humidity of 90%±5%” for “C.”, “Day 0.” for “Day 0;”
as §8, with “Photostability test: Crystal” for “(1) Crystal”, “at an illuminance of 4500 L×±500 L× in an illumination box” for “at 60° C.”, “Day 0.” for “Day 0;”
(§10) The content of the compound represented by formula (1) was measured by using an external standard method in accordance with the High Performance Liquid Chromatography in Chinese Pharmacopoeia, Appendix V D, Edition 2010.
(§11) The content of the relevant substance was measured by using an area normalization method in accordance with the High Performance Liquid Chromatography in Chinese Pharmacopoeia, Appendix V D, Edition 2010.

[4] = Assay 2: stability (influencing factor tests) for Crystal Form II; HPLC content; type: physicochemical
Experimental: Stability for Crystal Form II of the present compound
Crystal Form II of the compound represented by formula (1): Crystal Form II was prepared according to Example 4.
as §8, with “II” for “I”, “Sample was” for “Samples were”, “taken” for “taken respectively”, “on” for “on Day 5 and”
as §9, with “II” for “I”, “Sample was” for “Samples were”, “taken” for “taken respectively”, “on” for “on Day 5 and”
(§12) High humidity test: Crystal Form II of the compound represented by formula (1) was laid on a dry and clean watch glass, and kept at 25° C. under a relative humidity of 90%±5% for 10 days. Sample was taken respectively on Day 10. The contents of the relevant substance and the compound represented by formula (1) in the sample were measured, and compared with the contents of those in the sample taken on Day 0.
as §12, with “Photostability” for “High humidity”, “an illuminance” for “25° C. under a relative humidity”, “5000 L×±500 L× in an illumination box” for “90%±5%”, “taken” for “taken respectively”
as §10, §11

[5] = 60° C.-(1), open watch glass, Day 5
[6] = 60° C.-(1), open watch glass, Day 10
[7] = 60° C.-(2), packaged and sealed, Day 5
[8] = 60° C.-(2), packaged and sealed, Day 10
[9] = high temperature, high humidity, illumination

Content of the compound represented by formula (1) [3, 5]: 98.9% | Content of the relevant substance [3, 5]: 0.82% | Content of the compound represented by formula (1) [3, 6]: 98.1% | Content of the relevant substance [3, 6]: 0.97% | Content of the compound represented by formula (1) [3, 7]: 99.7% | Content of the relevant substance [3, 7]: 0.58% | Content of the compound represented by formula (1) [3, 8]: 99.0% | Content of the relevant substance [3, 8]: 0.60% | Content of the compound represented by formula (1) ([3]; 4500 Lx ± 500 Lx, Day 5): 98.1% | Content of the relevant substance ([3]; 4500 Lx ± 500 Lx, Day 5): 1.2% | Content of the compound represented by formula (1) ([3]; 4500 Lx ± 500 Lx, Day 10): 97.0% | Content of the relevant substance ([3]; 4500 Lx ± 500 Lx, Day 10): 2.0% | Content of the compound represented by formula (1) ([3]; Day 0): 99.5% | Content of the relevant substance ([3]; Day 0): 0.54% | Content of the compound represented by formula (1) ([3]; RH90% ± 5%, 25° C., Day 5): 99.1% | Content of the relevant substance ([3]; RH90% ± 5%, 25° C., Day 5): 0.56% | Content of the compound represented by formula (1) ([3]; RH90% ± 5%, 25° C., Day 10): 99.0% | Content of the relevant substance ([3]; RH90% ± 5%, 25° C., Day 10): 0.56% | Change of contents of the relevant substance and the compound represented by formula (1) [3, 9]: substantially did not change
SMILES: N#Cc1ccc(N2N=C3c4ccc(C(=O)N5CCC(O)CC5)nc4CC[C@@H]3[C@@H]2C2CCCC2)cc1Cl [Crystal Form I, 2-chloro-4-[(3S,3aR)-3-cyclopentyl-7-(4-hydroxypiperidin-1-carbonyl)-3,3a,4,5-tetrahydro-2H-pyrazolo[3,4-f]quinolin-2-yl]benzonitrile]
SBP Before Administration (mean ± SD) ([1]; 0.3 mg/kg/day group): 140.8 ± 9.6 mmHg | SBP After Administration (on 41th day) (mean ± SD) ([1]; 0.3 mg/kg/day): 166.5 ± 10.2 mmHg | SBP Before Administration (mean ± SD) ([1]; 1 mg/kg/day group): 140.9 ± 9.5 mmHg | SBP After Administration (on 41th day) (mean ± SD) ([1]; 1 mg/kg/day): 148.7 ± 9.6 mmHg | SBP Before Administration (mean ± SD) ([1]; 3 mg/kg/day group): 141.0 ± 9.4 mmHg | SBP After Administration (on 41th day) (mean ± SD) ([1]; 3 mg/kg/day): 141.6 ± 8.0 mmHg | SBP Before Administration (mean ± SD) ([1]; 10 mg/kg/day group): 141.2 ± 9.2 mmHg | SBP After Administration (on 41th day) (mean ± SD) ([1]; 10 mg/kg/day): 141.2 ± 9.6 mmHg | Depressurization effect ([1]; 0.3-10 mg/kg/day oral, high salt Dahl/ss rats, listed as Crystal Form I of the present invention): significant depressurization effect; also recorded: remarkable depressurization effect | left ventricular wall thickness (mean ± SD) ([2]; 0.3 mg/kg/day oral): 0.392 ± 0.024 cm | Kidney injury scores (Mean ± SD) ([2]; 0.3 mg/kg/day oral): 2.02 ± 0.268 | left ventricular wall thickness (mean ± SD) ([2]; 1 mg/kg/day oral): 0.383 ± 0.017 cm | Kidney injury scores (Mean ± SD) ([2]; 1 mg/kg/day oral): 1.25 ± 0.428 | left ventricular wall thickness (mean ± SD) ([2]; 3 mg/kg/day oral): 0.381 ± 0.026 cm | Kidney injury scores (Mean ± SD) ([2]; 3 mg/kg/day oral): 1.84 ± 0.596 | left ventricular wall thickness (mean ± SD) ([2]; 10 mg/kg/day oral): 0.383 ± 0.019 cm | Kidney injury scores (Mean ± SD) ([2]; 10 mg/kg/day oral): 1.71 ± 0.719 | Heart protection (left ventricular wall thickness) ([2]; compared with the model group): significantly decreased the left ventricular wall thickness | Kidney protection (kidney injury score) ([2]; treatment groups vs model group, listed as Crystal Form I of the present invention): remarkable prevention from the increase in the kidney injury score; also recorded: kidney injury protection | Stability compared with the amorphous form [3]: superior to the amorphous form in the stability

Content of the compound represented by formula (1) [4, 6]: 96.2% | Content of the relevant substance [4, 6]: 2.8% | Content of the compound represented by formula (1) [4, 8]: 97.1% | Content of the relevant substance [4, 8]: 2.7% | Content of the compound represented by formula (1) ([4]; 5000 Lx ± 500 Lx, Day 10): 95.5% | Content of the relevant substance ([4]; 5000 Lx ± 500 Lx, Day 10): 2.8% | Content of the compound represented by formula (1) ([4]; Day 0): 96.2% | Content of the relevant substance ([4]; Day 0): 2.6% | Content of the compound represented by formula (1) ([4]; RH90% ± 5%, 25° C., Day 10): 96.9% | Content of the relevant substance ([4]; RH90% ± 5%, 25° C., Day 10): 2.6% | Change of contents of the relevant substance and the compound represented by formula (1) [4, 9]: substantially did not change
SMILES: N#Cc1ccc(N2N=C3c4ccc(C(=O)N5CCC(O)CC5)nc4CC[C@@H]3[C@@H]2C2CCCC2)cc1Cl [Crystal Form II, 2-chloro-4-[(3S,3aR)-3-cyclopentyl-7-(4-hydroxypiperidin-1-carbonyl)-3,3a,4,5-tetrahydro-2H-pyrazolo[3,4-f]quinolin-2-yl]benzonitrile]
Stability compared with the amorphous form [4]: superior to the amorphous form in the stability
